For data set [1], the system named is LP-1 myeloma cells. The data set is described as follows: Cell viability MTS assay, LP1. The format is cell-based. As to conditions: 72 hours. As to the method: (§1) LP-1 myeloma cells, MDAY-D2 murine leukemia/lymphoma cells, and OCI-AML2 human leukemia cells and A549 lung cancer cells were treated with increasing concentrations of compounds 5AHQ, HNQ, BCQ, COQ, and DiiodoQ (Table 1). 72 hours after incubation, cell viability was determined by an MTS assay. […] . Given the effects on cultured cells, 5AHQ was evaluated in a mouse model of leukemia. K562 cells were injected subcutaneously into NOD SCID mice. […] .
(In general: Tetrazolium dyes change colour on reduction, which living cells bring about.)

In data set [2] the test system is OCI-AML2 human leukemia cells. The data set is described as follows: Cell viability MTS assay, AML2. As to conditions: 72 hours. The format is cell-based. The method, then: as §1
The test system of data set [3] is MDAY-D2 murine leukemia/lymphoma cells. Briefly: Cell viability MTS assay, MDAY-D2. The format is cell-based. Particulars: 72 hours. As to the method: as §1
Data set [4] concerns A549 lung cancer cells. Briefly: Cell viability MTS assay, A549. As to conditions: 72 hours. The format is cell-based. As to the method:
as §1

A short description of data set [5]: Copper binding: stability constant and Cu:ligand ratio. The format is physicochemical.
Data set [6] has as its system K562 human leukemia cells. The data set is described as follows: K562 leukemia xenograft in NOD/SCID mice. The format is in vivo. The method, then: Sublethally irradiated (3.54 Gy) NOD/SCID mice were injected subcutaneously with K562 human leukemia cells. One week later, mice were then treated daily by oral gavage with 5AHQ (50 mg/kg) in water. Three weeks after injection of cells, mice were sacrificed, the subcutaneous tumor excised, and the weight and volume of the tumor measured.
(§2) Given the effects on leukemia and lymphoma cell lines and primary patient samples, the compounds were tested in a leukemia/lymphoma xenograft model. MDAY-D2 leukemia/lymphoma cells were injected intraperitoneally into DBA2 mice. Mice were then treated twice daily with oral clioquinol (100 mg/kg) for 10 days. Ten days after treatment, mice were sacrificed and the weight and volume of the intraperitoneal tumor was measured. […] Similar results were obtained with a K562 leukemia, MDAY-D2 leukemia/lymphoma and OCI AML2 human leukemia xenograft (FIG. 4) K562 leukemia, MDAY-D2 leukemia/lymphoma or OCI AML2 human leukemia cells were injected subcutaneous into sublethally irradiated NOD-Scid mice. Animals were subsequently treated with 5AHQ. The 5AHQ treatment was initiated when tumors reached volumes of 200 mm^3 at which time mice were randomized to receive 100 mg/kg of 5AHQ (treated group) or buffer control (untreated group) for 5 of 7 days. Caliper measurements were performed twice weekly to estimate tumor volume and differences compared between treated and untreated groups.
LP-1 myeloma cells, MDAY-D2 murine leukemia/lymphoma cells, and OCI-AML2 human leukemia cells and A549 lung cancer cells were treated with increasing concentrations of compounds 5AHQ, HNQ, BCQ, COQ, and DiiodoQ (Table 1). 72 hours after incubation, cell viability was determined by an MTS assay. […]. Given the effects on cultured cells, 5AHQ was evaluated in a mouse model of leukemia. K562 cells were injected subcutaneously into NOD SCID mice. […].

The test system of data set [7] is MDAY-D2 leukemia/lymphoma. Briefly: MDAY-D2 subcutaneous tumor in NOD-Scid mice. The format is in vivo. As to conditions: 100 mg/kg for 5 of 7 days. The method, then:
as §2

In data set [8] the test system is OCI AML2 human leukemia cells. Briefly: OCI AML2 xenograft in NOD-Scid mice. The format is in vivo. Particulars: OCI AML2 subcutaneous; 100 mg/kg for 5 of 7 days. The method, then:
as §2

Data set [9] deals with myeloma cell lines. Briefly: Cell viability panel, myeloma cell lines. Particulars: read-out: IC50, induced cell death.
Procedure: (§3) Cells were cultured at 37° C. with 5% CO2 in a humid incubator.
(§4) Cell viability was assessed with the CellTiter96® Aqueous Non-Radioactive Assay kit according to manufactures' instructions (Promega).
(§5) The effects of clioquinol on the viability of acute leukemia/lymphoma (n=7), myeloma (n=14), and solid tumor (n=5) cell lines as well as primary AML samples (n=6) and primary normal hematopoietic cells (n=3) was tested.
The subject of data set [10] is solid tumor cell lines. The data set is described as follows: Cell viability panel, solid tumor cell lines.
Procedure: as §3, §4, §5
The test system of data set [11] is acute leukemia/lymphoma cell lines. The data set is described as follows: Cell viability panel, acute leukemia/lymphoma cell lines. As to conditions: read-out: IC50, induced cell death.
Procedure: as §3, §4, §5
Data set [12] concerns the target T1, 20S proteasome (Homo sapiens, UniProt P28074).
T1 construct: Cellular proteins were extracted from cells with lysis buffer; endogenous in cells
T1 sequence (P28074 60-263): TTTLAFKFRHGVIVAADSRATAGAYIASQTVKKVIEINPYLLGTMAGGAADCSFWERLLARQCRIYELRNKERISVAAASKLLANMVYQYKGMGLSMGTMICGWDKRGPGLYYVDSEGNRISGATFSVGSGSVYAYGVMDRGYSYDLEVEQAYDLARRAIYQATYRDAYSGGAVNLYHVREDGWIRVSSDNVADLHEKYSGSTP
Briefly: Proteasome activity (chymotrypsin-like, Suc-LLVY-AMC). The format is biochemical. As to the method:
Cellular proteins were extracted from cells with lysis buffer (50 mM HEPES pH 7.5, 150 mM NaCl, 2 mM ATP, and 1% Triton X-100). The chymotrypsin-like activity of the proteasome was measured by incubating equal amounts of protein with the preferential chymotrypsin-like substrate Suc-LLVY-AMC in assay buffer (50 mM Tris-HCl, pH 7.5, 150 mM NaCl) for two hours. After incubation, […] and the rate of free AMC was measured over time with a florescent spectrophotometric plate reader (excitation=380 nm, emission=460 nm).

Data set [13] relates to primary AML patient samples. Briefly: Cell viability, primary AML samples. The format is cell-based. As to conditions: Homo sapiens; in 6/7 primary AML patient samples; forty-eight hours; read-out: IC50, induced cell death.
Data set [14] relates to primary normal hematopoietic cells. Briefly: Cell viability, primary normal hematopoietic cells. The format is cell-based. As to conditions: forty-eight hours.
Data set [15] has as its system cyclin D2 promoter. The data set is described as follows: High throughput screen for inhibitors of cyclin D2 transactivation (luciferase). The format is cell-based, Mouse. As to conditions: NIH3T3 cells with c-maf; ~5 μM; sixteen hours. An excerpt: The promoter of cyclin D2 (−894 to −4), containing c-maf responsive element sequence (MARE), was cloned from HeLa cell genomic DNA and subcloned into the pGL2 luciferase reporter vector (Promega, Madison, Wis.). This construct was co-transfected with pcDNA3.1 containing a neomycin resistance gene into NIH3T3 wild type cells and NIH3T3 cells stably over-expressing c-maf-IRES-GFP. Cells stably expressing c-maf, GFP, and luciferase were selected for further application.
NIH3T3 cells stably expressing c-maf and the cyclin D2 promoter driving luciferase (13,000 cells per well) were plated in 96-well plates by the Biomek FX liquid handler (Beckman, Fullerton, Calif.). The same workstation was used for plate formatting and reagent distribution. […] After incubation, cyclin D2 transactivation was assessed by the luciferase assay and viability was assessed by the MTS assay.
Luciferase activity was assessed according to the manufacturer's instructions (Promega, Madison, Wis.). […] After 10 min incubation, an equal volume of Bright-Glo Luciferase substrate (Promega) was added and the luminescence signal was detected with a 96-well Luminoskan luminescence plate reader (Thermo Labsystem, Waltham, Mass.) with a 5 second integration. […]

For data set [16], the system named is p21 and p27. The data set is described as follows: p21 and p27 expression in myeloma and leukemia cells. The format is cell-based. As to conditions: low micromolar concentrations. The method, then:
To prepare cytosolic extracts, NIH3T3 cells and myeloma cells were washed with phosphate-buffered saline (PBS, pH 7.4) and suspending in lysis buffer [10 mM Tris (pH 7.4), 150 mM NaCl, 0.1% Triton X-100, 0.5% sodium deoxycholate, and 5 mM EDTA] containing protease inhibitors (Complete tablets, Roche, Indianapolis, Ind.). Protein concentrations were determined by the Bradford assay. Immunoblot assays were performed by subjecting equal amounts of protein to SDS-PAGE gels followed by transfer to Nitrocellulose membranes. Membranes were probed with polyclonal rabbit anti-human cyclin D2 (0.5 μg/ml, both from Santa Cruz Biotech, Santa Cruz, Calif.), or monoclonal mouse-anti human p21 (1:200 v/v, Santa Cruz Biotech), monoclonal mouse-anti human p27 (1:2,500 v/v BD Transduction Laboratories), polyclonal mouse-anti human ubiquitin (1:2,000 v/v Calbiochem) and monoclonal mouse-anti-β-actin (1:10,000 v/v) (Sigma, St. Lois, Mo.). […] Detection was performed by the Enhanced Chemical Luminescence (ECL) method (Pierce, Rockford, Ill.).
Cyclin D2 is over-expressed in multiple myeloma (MM) and a subset of high-risk patients with acute myeloid leukemia (AML), contributing to their pathogenesis and chemoresistance (17, 18) (19). […] Sixteen hours after the addition of the compounds, luciferase expression was measured as a marker of cyclin D2 transactivation. […]

The subject of data set [17] is myeloma and leukemia cells. The data set is described as follows: Cell cycle analysis. The format is cell-based. As to conditions: low micromolar concentrations. As to the method:
Cells were harvested, washed with cold PBS, suspended in 70% cold ethanol and incubated overnight at −20° C. Cells were then treated with 100 ng/ml of DNase-free RNase (InvitroGen) at 37° C. for 30 min, washed with cold PBS, and resuspended in PBS with 50 μg/ml of propidium iodine. DNA content was analyzed by flow cytometry (FACSCalibur, Becton Dickinson, Florida, USA). The percentage of cells in each phase of the cell cycle was calculated with ModiFit software (Becton Dickinson).
Cyclin D2 is over-expressed in multiple myeloma (MM) and a subset of high-risk patients with acute myeloid leukemia (AML), contributing to their pathogenesis and chemoresistance (17, 18) (19). One of the regulators of cyclin D2 is the oncogene c-maf that is also frequently over-expressed in MM (27). Therefore, it was sought to identify c-maf dependent and independent inhibitors of cyclin D2. To identify such small molecule inhibitors, a high throughput chemical genomics screen was developed. […] Sixteen hours after the addition of the compounds, luciferase expression was measured as a marker of cyclin D2 transactivation. […]

For data set [18], the system named is MDAY-D2 leukemia/lymphoma cells. The format is in vivo, mice. As to conditions: oral 100 mg/kg twice daily, 10 days. As to the method:
DBA-2 mice were injected intraperitoneally with MDAY-D2 murine leukemia cells. Mice were then treated twice daily by oral gavage with clioquinol (100 mg/kg) dissolved in intralipid or intralipid control. Ten days after treatment, mice were sacrificed, the intraperitoneal tumor excised, and the weight and volume of the tumor measured.
as §2, with “Caliper measurements were performed twice weekly to estimate tumor volume and differences compared between treated and untreated groups.” left out

The conditions of data set [19]: after oral administration, patients; cited from earlier work.
Data set [20] deals with T2, proteasome (Homo sapiens, UniProt P28074).
T2 sequence (P28074 60-263): T1 sequence (P28074 60-263)
The data set is described as follows: Proteasome inhibition in cells. Particulars: resistant cells (for clioquinol including normal hematopoietic cells).
Procedure: Cellular proteins were extracted from cells with lysis buffer (50 mM HEPES pH 7.5, 150 mM NaCl, 2 mM ATP, and 1% Triton X-100). The chymotrypsin-like activity of the proteasome was measured by incubating equal amounts of protein with the preferential chymotrypsin-like substrate Suc-LLVY-AMC in assay buffer (50 mM Tris-HCl, pH 7.5, 150 mM NaCl) for two hours. After incubation, was added and the rate of free AMC was measured over time with a florescent spectrophotometric plate reader (excitation=380 nm, emission=460 nm).

The term IC50 denotes the point on the concentration scale where inhibition reaches its midpoint.

For `Nc1ccc(O)c2ncccc12` [5AHQ, 5-amino-8-hydroxyquinoline], the “LD50 whole cell, LP1” value in data set [1] is listed as 12.5 μm. In addition, the “LD50 whole cell, AML2” value in data set [2] was 3.9 μm. The “LD50 whole cell, MDAY-D2” value in data set [3] came out at 7.8 μm. Besides, the “LD50 whole cell, A549” value in [4] was determined as 31.25 μm. The “K (stability)” value in data set [5] was 9.84. The “tumor weight and volume” value in data set [6] (50 mg/kg in water, oral gavage, three weeks after injection of cells) is “reduced tumor weight and volume”. The “tumor growth (volume)” value in data set [6] (K562 subcutaneous, 100 mg/kg for 5 of 7 days) is reported as “delayed tumor growth”; in data set [7], “delayed tumor growth”; in data set [8], “delayed tumor growth”. Also, the “efficacy dose in mice xenografts” value in data set [6] (mouse, in vivo) is on record as 50 mg/kg/day. For the same compound, the toxicity result in data set [6] (mouse, in vivo) was “No significant toxicity”. Besides, the IC50 in data set [9] was below 15 µM; in data set [10] (read-out: IC50, induced cell death), below 15 µM; in [11], below 15 µM.
In the case of `Oc1c(Br)cc(Cl)c2cccnc12` [BCQ, 7-bromo-5-chloro-8-hydroxyquinoline], the “LD50 whole cell, LP1” value in [1] came to 31.25 μm. The compound further yielded an IC50 in data set [12] of 15.6 µM. The “K (stability)” value in data set [5] turned out to be 10.24.
For `Oc1ccc(Cl)c2cccnc12` [COQ, 5-chloro-8-hydroxyquinoline], the “LD50 whole cell, LP1” value in data set [1] worked out at 31.25 μm. The “LD50 whole cell, AML2” value in [2] is 3.9 μm. In [3], the “LD50 whole cell, MDAY-D2” value is given as 3.9 μm. Further, the “LD50 whole cell, A549” value in [4] is given as 62.5 μm. Also, the IC50 in data set [12] amounted to 62.5 µM. In data set [5], the “K (stability)” value was 8.89.
Regarding `Oc1c(I)cc(Cl)c2cccnc12` [Clioquinol, 5-chloro-7-iodo-8-hydroxyquinoline, reference compound], the “LD50 whole cell, LP1” value in data set [1] was 31.25 μm. The “LD50 whole cell, AML2” value in data set [2] is 3.9 μm. In addition, the “LD50 whole cell, MDAY-D2” value in [3] came to 15.6 μm. Besides, the “LD50 whole cell, A549” value in data set [4] is given as 250 μm. The IC50 in data set [12] is 12.5 µM; in [13], below 20 µM; in data set [9], below 20 µM; in [11], below 20 µM. The “K (stability)” value in data set [5] was 9.06. Moreover, the “samples with induced cell death at IC50<20 μM” value in data set [14] is reported as 0/3. The “inhibition of cyclin D2 promoter (luciferase)” value in data set [15] was “c-maf independent inhibitors of the cyclin D2 promoter”. Further, the “p21 and p27 expression” value in data set [16] is “increased expression of p21 and p27”. For the same compound, the cell cycle effect entry in data set [17] is recorded as “arrested cells in the G1 phase”. Besides, in data set [18], the tumor progression result is on record as “delayed tumor progression”. Besides, in [19], the trough serum concentration was 20 µM. The “proteasomal inhibition in compound-resistant cells” value in [20] is “no proteasomal inhibition was detected”. Moreover, the “cell lines with induced cell death at IC50<20 μM” value in data set [10] (solid tumor, forty-eight hours) is on record as 0/5.
Regarding `Oc1c(I)cc(I)c2cccnc12` [DiiodoQ, reference compound], in data set [2], the “LD50 whole cell, AML2” value is 62.5 μm. In addition, in data set [3], the “LD50 whole cell, MDAY-D2” value was 31.25 μm. The “LD50 whole cell, A549” value in data set [4] is on record as 250 μm. Also, the IC50 in data set [12] is above 1000 µM.
Take `O=[N+]([O-])c1ccc(O)c2ncccc12` [HNQ, 8-hydroxy-5-nitroquinoline]: in data set [1], the “LD50 whole cell, LP1” value was found to be 15.6 μm. 15.6 µM corresponded to half-maximal inhibition in data set [12] (IC50). In addition, in data set [5], the “K (stability)” value was determined as 9.13.
